Laboratory results reported in paper PMC7822874, “Chemoprotective antimalarials identified through quantitative high-throughput screening of Plasmodium blood and liver stage parasites” (Scientific Reports, 2021).

Test system: Plasmodium falciparum Dd2 asexual blood stage parasites
Experiment: microbe, parasite or virus in culture
Design: species or system Plasmodium falciparum Dd2 in human erythrocytes; single determination (one 11-point concentration-response curve)
Conditions: Plasmodium falciparum, DD2, Erythrocyte, 72 h

`Cc1ccc(C(=O)Nc2cccc(NC(=O)c3ccc(C)c([N+](=O)[O-])c3)n2)cc1[N+](=O)[O-]` [MLS001195117-01] gave an AC50 of 15 µM.

Same assay, conditions: Plasmodium falciparum, DD2, Erythrocyte, 72 h; read-out: AC50

Point of comparison: `COc1ccccc1-c1cc(C(=O)N2CCN(S(=O)(=O)c3ccc(C)cc3)CC2)[nH]n1` [MLS000924750-01], AC50 7.5 µM. Against it:
- COc1cc(O)c(C(CCN2CCOCC2)c2ccc3c(c2)OCO3)c(OC)c1 (stereo not shown) [MLS000879477-01] — 1.8-fold lower, 4.22 µM
- COc1cc(O)c(C(CCN2CCCC(C)C2)c2ccc3c(c2)OCO3)c(OC)c1 (stereo not shown) [MLS000879506-01] — 14-fold lower, 0.531 µM
- CCN(CC)CCC(c1ccc(N(C)C)cc1)c1c(O)cc(OC)cc1OC (stereo not shown) [MLS000879508-01] — 2.2-fold lower, 3.35 µM
- CN(C)CCCNc1ccc(-c2cc(Nc3cccc(Cl)c3)ncn2)cn1 [MLS000911553-01] — within 1.5-fold, 9.44 µM
- CCN1CCN(Cc2ccc(NC(=O)c3cc(NC(=O)c4cc(-c5ccc(OC)cc5)n[nH]4)cc(OC)c3)cc2C(F)(F)F)CC1 [MLS000911571-01] — 45-fold lower, 0.168 µM
- CCN1CCN(Cc2ccc(NC(=O)c3cc(NC(=O)C4=NN(c5ccccc5)C(=O)C4)cc(OC)c3)cc2C(F)(F)F)CC1 [MLS000911574-01] — within 1.5-fold, 8.41 µM
- CCN1CCN(Cc2ccc(NC(=O)c3cc(NC(=O)c4cncc(-c5ccc(C#N)cc5)c4)cc(OC)c3)cc2C(F)(F)F)CC1 [MLS000911575-01] — 13-fold lower, 0.596 µM
- COc1ccc2nc3oc(C(=O)N4CC(C)CC(C)C4)cc3cc2c1 (stereo not shown) [MLS000912759-01] — within 1.5-fold, 8.41 µM
- CC(=O)N1CCc2cc(Br)cc(S(=O)(=O)N3CCCCC3)c21 [MLS000936219-01] — within 1.5-fold, 5.96 µM
- COc1ccc(-n2nc(C(=O)NCC(=O)N3CCN(c4ccccc4OC)CC3)c3ccccc3c2=O)cc1OC [MLS000936245-01] — within 1.5-fold, 6.68 µM
- Cc1cc([N+](=O)[O-])ccc1NC(=O)COc1nsnc1N1CCOCC1 [MLS000950344-01] — within 1.5-fold, 6.68 µM
- CC(C)N1CCN(Cc2ccc(-c3ccccc3)cc2)CC1CCO (stereo not shown) [MLS001000401-01] — within 1.5-fold, 6.68 µM
- Cc1c(CN2CCN(CC(C)(C)C)C(CCO)C2)[nH]c2ccccc12 (stereo not shown) [MLS001000590-01] — within 1.5-fold, 9.44 µM
- C/C=C/c1cc(CN2CCN(c3ccccc3)CC2)c(O)c(OC)c1 [MLS001002110-01] — within 1.5-fold, 5.96 µM
- Cc1ccc(S(=O)(=O)N2CCN(/C(S)=N/Cc3ccc4c(c3)OCO4)CC2)cc1 [MLS001002637-01] — 3.2-fold lower, 2.37 µM
- COc1ccc(O)c(C(=O)c2cnc3c(c2)c(-c2ccc(F)cc2)c(C#N)c(=O)n3C)c1 [MLS001003111-01] — within 1.5-fold, 5.96 µM
- COc1cc(C(=O)OCC(=O)N2CCCCC2C)cc(NC(=O)c2cccs2)c1OC (stereo not shown) [MLS001003405-01] — 16-fold lower, 0.473 µM
- CCOc1ccc(C(C)NC(S)=NC2CCCCC2)cc1OCC (stereo not shown) [MLS001007596-01] — 36-fold lower, 0.211 µM
- O=C(CNC1CC1)Nc1cc(C(F)(F)F)ccc1Cl [MLS001010951-01] — 2-fold higher, 15 µM
- C[n+]1c(-c2ccccc2)cc(-c2ccc(Cl)cc2)cc1-c1ccccc1.[O-][Cl+3]([O-])([O-])O [MLS001018624-01] — within 1.5-fold, 6.68 µM
- CCOC(=O)N1CCN(C(=O)c2ccc3c(c2)N(C)C(=O)/C(=C\c2ccc(OCC)c(OC)c2)S3)CC1 [MLS001030648-01] — within 1.5-fold, 6.68 µM
- CCc1cc(C(=O)OC)c(NC(=O)CN2CCN(C(=O)c3ccco3)CC2)s1 [MLS001034503-01] — within 1.5-fold, 5.96 µM
- COc1ccc(S(=O)(=O)N2CCN(/C(S)=N/CC3CCCO3)CC2)cc1OC (stereo not shown) [MLS001035648-01] — within 1.5-fold, 6.68 µM
- O=S(=O)(c1ccc(F)cc1)N1CCN(/C(S)=N/CCc2ccccc2)CC1 [MLS001035761-01] — within 1.5-fold, 5.96 µM
- CCCCCCCn1c(NC(=O)CC)nc2ccccc21 [MLS001042192-01] — 2.2-fold higher, 16.8 µM
- COc1ccc(OC)c(S(=O)(=O)Nc2ccc(O)c3ccccc23)c1 [MLS001045548-01] — within 1.5-fold, 8.41 µM
- CCc1cccc(C)c1NC(=O)CN1CCN(S(=O)(=O)c2ccc(C(C)(C)C)cc2)CC1 [MLS001070982-01] — within 1.5-fold, 8.41 µM
- Cc1ccc(CNC(=O)c2ccc(N3CCC4(CC3)CC(c3cccc(Br)c3)=NO4)c(NC(=O)c3ccco3)c2)cc1 [MLS001074407-01] — within 1.5-fold, 8.41 µM
- CC(C)C[C@@]12C(=O)N(c3cccc(Br)c3)C(=O)N1[C@H](c1ccc(F)cc1)[C@@H]1C(=O)N(C3CCCCC3)C(=O)[C@@H]12 [MLS001074979-01] — the same, 7.5 µM
- CCC(Oc1ccccc1)C(=O)Nc1cc(C(F)(F)F)ccc1N1CCOCC1 (stereo not shown) [MLS001099270-01] — the same, 7.5 µM
- Cc1ncc(CN2CCC(C(=O)Nc3ccc(-n4cccn4)cc3)CC2)s1 [MLS001101085-01] — 1.6-fold lower, 4.73 µM
- CCC(C)N(CCNC(=O)c1ccc2c(c1)NC(=O)c1ccccc1S2)C1CCCCC1 (stereo not shown) [MLS001110969-01] — 1.8-fold higher, 13.3 µM
- Cc1onc(-c2ccc(Cl)cc2)c1-c1ccnn1S(=O)(=O)c1cccc(C(F)(F)F)c1 [MLS001111123-01] — 1.6-fold lower, 4.73 µM
- COc1ccc(CNC(=O)C2CCN(c3nc(-c4ccccc4)nc4c3CCC4)CC2)cc1 [MLS001120192-01] — the same, 7.5 µM
- COc1cccc(-c2cc(C(=O)Nc3ccncc3)c3ccccc3n2)c1 [MLS001125696-01] — within 1.5-fold, 6.68 µM
- CC(C)c1ccc(C2c3[nH]c4ccccc4c3C[C@H]3C(=O)N(c4ccccc4C(=O)N4CCC(C(=O)O)CC4)C(=O)N23)cc1 (stereo partly shown) [MLS001140664-01] — within 1.5-fold, 6.68 µM
- O=C(NCC1CCCCC1)c1cc2ccccc2cc1O [MLS001141978-01] — within 1.5-fold, 9.44 µM
- COc1cccc(NC(=O)CN(C)C(=O)c2oc3c(ccc4ccccc43)c2C)c1 [MLS001142056-01] — 10-fold lower, 0.75 µM
- Nc1nonc1-n1nnc(C(=O)N/N=C/c2ccc(F)cc2)c1-c1ccc2c(c1)OCO2 [MLS001142639-01] — 22-fold lower, 0.335 µM
- Cc1ccc(/C=N/NC(=O)c2nnn(-c3nonc3N)c2-c2ccc3c(c2)OCO3)s1 [MLS001142659-01] — 8.9-fold lower, 0.841 µM
- Nc1nonc1-n1nnc(C(=O)N/N=C/c2ccc(Cl)cc2)c1-c1ccc2c(c1)OCO2 [MLS001142698-01] — 20-fold lower, 0.376 µM
- CCOc1cc(C(=O)N2CCC(CC3CC(c4ccc(Cl)cc4)=NO3)(C(=O)NCC3CCCCC3)CC2)cc(OCC)c1OCC (stereo not shown) [MLS001143937-01] — 8.9-fold lower, 0.841 µM
- CCCCCCCNC(=O)C1(CC2CC(c3cccc(Br)c3)=NO2)CCN(C(=O)c2cc(OCC)c(OCC)c(OCC)c2)CC1 (stereo not shown) [MLS001144006-01] — within 1.5-fold, 10.6 µM
- COc1ccc(CCn2c(=N)c(C(=O)NCCN3CCOCC3)cc3c(=O)n4cccc(C)c4nc32)cc1OC [MLS001146185-01] — 1.8-fold higher, 13.3 µM
- Cc1cccc(-c2cc(C(=O)Nc3ccncc3)c3ccccc3n2)c1 [MLS001147429-01] — within 1.5-fold, 8.41 µM
- O=S(=O)(c1ccc(F)cc1)N1CCN(/C(S)=N/CC2CCCO2)CC1 (stereo not shown) [MLS001148319-01] — within 1.5-fold, 6.68 µM
- CCN(CC)S(=O)(=O)c1ccc(N2CCCCC2)c(NC(=O)C2=COCCO2)c1 [MLS001150729-01] — within 1.5-fold, 6.68 µM
- CCCCn1c(N)c(N(CC(C)C)C(=O)c2cc(-c3ccc(OC)c(OC)c3)nc3ccccc23)c(=O)[nH]c1=O [MLS001157051-01] — 1.6-fold higher, 11.9 µM
- CC(Oc1ccc(F)cc1)C(=O)Nc1cc(Cl)ccc1-n1cncn1 (stereo not shown) [MLS001157608-01] — within 1.5-fold, 6.68 µM
- CCc1cc(=O)oc2cc(C)cc(OCC(=O)NCC(O)c3ccccc3)c12 (stereo not shown) [MLS001158251-01] — within 1.5-fold, 6.68 µM
- Cc1cc(OC(C)C(=O)NCCc2c[nH]c3ccccc23)c2c(C)cc(=O)oc2c1 (stereo not shown) [MLS001158613-01] — 2.8-fold lower, 2.66 µM
- O=C(Nc1ccncc1)c1cc(-c2cccc(Br)c2)nc2ccccc12 [MLS001159350-01] — 1.8-fold higher, 13.3 µM
- CCCCc1cc(=O)oc2cc(C)cc(OCC(=O)Nc3cccnc3)c12 [MLS001160046-01] — 13-fold lower, 0.596 µM
- CC(Oc1ccc(F)cc1)C(=O)Nc1cc(C(F)(F)F)ccc1-n1cncn1 (stereo not shown) [MLS001160637-01] — 4.5-fold lower, 1.68 µM
- COc1ccc(-c2csc3ncnc(N4CCN(S(=O)(=O)c5ccc(C(C)=O)cc5)CC4)c23)cc1 [MLS001160708-01] — 1.8-fold lower, 4.22 µM
- CC1CC(C)CN(C(=O)c2ccc3ccccc3c2)C1 (stereo not shown) [MLS001161774-01] — 3.2-fold lower, 2.37 µM
- Oc1ccccc1C1=NN(c2ccccc2)C(c2ccccc2)C1 (stereo not shown) [MLS001163829-01] — the same, 7.5 µM
- Cc1ccc(N(C)C2=NC(=O)CS2)cc1Cl [MLS001164579-01] — within 1.5-fold, 9.44 µM
- COc1ccc(CN2C(=O)C(C)N(C(=O)c3c(F)cccc3F)c3ccccc32)cc1 (stereo not shown) [MLS001166304-01] — the same, 7.5 µM
- CCN(CC(O)c1cccc(O)c1)C(=O)C12CC3CC(CC(C3)C1)C2 (stereo not shown) [MLS001166662-01] — 1.6-fold lower, 4.73 µM
- CS(=O)(=O)c1ccc(C(=O)Nc2ccc(-c3nc4ccccc4[nH]3)cc2)cc1 [MLS001166841-01] — the same, 7.5 µM
- COC1=CC(=O)C(=C(C)N/N=C(\S)NCCc2ccccc2)C=C1 [MLS001170945-01] — 2.2-fold lower, 3.35 µM
- OC(c1ccc(Cl)cc1)C(CN1CCOCC1)c1ccccc1 (stereo not shown) [MLS001173582-01] — 2.5-fold lower, 2.99 µM
- COc1ccccc1NCc1cc(=O)oc2c(C)c(O)ccc12 [MLS001175266-01] — within 1.5-fold, 5.96 µM
- COc1ccc(CCN(C)/C(S)=N/c2cccc(C)c2)cc1OC [MLS001177860-01] — 3.6-fold lower, 2.11 µM
- CC(C)c1ccccc1OCC(O)CN(CC(O)COc1cccc2ccccc12)C(C)C (stereo not shown) [MLS001179995-01] — 3.2-fold lower, 2.37 µM
- Oc1ccc(-c2ccccc2)cc1CN1CCCCCC1 [MLS001195126-01] — 28-fold lower, 0.266 µM
- COc1ccccc1C1CC(c2ccccc2)=NN1C(=O)c1ccccc1 (stereo not shown) [MLS001197331-01] — 3.2-fold lower, 2.37 µM
- COc1cc(C2Nc3ccc4ccccc4c3C3=C2C(=O)CC(C)(C)C3)ccc1OC(C)C(=O)O (stereo not shown) [MLS001197433-01] — within 1.5-fold, 6.68 µM
- CCOc1ccc(CCNC(=O)Nc2ccccc2)cc1OCC [MLS001197603-01] — within 1.5-fold, 5.31 µM
- CCCCN(CC)CCNC(S)=Nc1ccc2nc(N3CCN(C)CC3)cc(C)c2c1 [MLS001197626-01] — within 1.5-fold, 5.96 µM
- CC1C(=O)C(C)C(c2cc(Cl)ccc2O)NC1c1cc(Cl)ccc1O (stereo not shown) [MLS001197743-01] — within 1.5-fold, 6.68 µM
- Cc1[nH]c2ccc(OC(F)(F)F)cc2c1CCNCc1cccc([N+](=O)[O-])c1 [MLS001198398-01] — 1.6-fold lower, 4.73 µM
- CCCCCCC(O)(c1ccc(OC)cc1)C(CN1CCOCC1)c1ccccc1 (stereo not shown) [MLS001198921-01] — 1.8-fold lower, 4.22 µM
- CCCCCC(O)(c1ccc(OC)cc1)C(CN1CCOCC1)c1ccccc1 (stereo not shown) [MLS001198946-01] — 3.6-fold lower, 2.11 µM
- COc1ccc(C(O)(CCC(C)C)C(CN2CCOCC2)c2ccccc2)cc1 (stereo not shown) [MLS001198958-01] — within 1.5-fold, 5.31 µM
- Cc1cc(N(C)Cc2ccccc2)nc2cc(O)ccc12 [MLS001199318-01] — 3.2-fold lower, 2.37 µM
